Tests used:
[1] = Drug uptake in Leishmania infantum LEM 3049 isolate promastigotes at 20 uM after 10 mins at 28 degC by fluorimetric assay; assay type: ADME
[2] = Selectivity index, ratio of EC50 for cytotoxicity against human THP1 cells to EC50 for antileishmanial activity against Leishmania infantum amastigotes infected in human THP1 cells; assay type: toxicity, cell-based; conditions: read-out: Ratio EC50
[3] = system: Leishmania infantum; experiment: Antileishmanial activity against Leishmania infantum promastigote after 72 hrs by MTT assay; assay type: functional, organism-based
[4] = Drug uptake in ATP depleted Leishmania infantum LEM 3049 isolate promastigotes at 20 uM after 10 mins in presence of 2-deoxy-D-glucose by fluorimetric assay; assay type: ADME
[5] = system: THP-1; experiment: Cytotoxicity against human THP1 cells assessed as reduction in cell viability after 72 hrs by MTT assay; assay type: cell-based; conditions: THP-1, 72 h
[6] = system: Leishmania infantum; experiment: Antileishmanial activity against Leishmania infantum amastigotes infected in human THP1 cells after 96 hrs by prolong-gold antifade-reagent/DAPI staining based assay; assay type: functional, organism-based; conditions: THP-1, 96 h
[7] = Drug uptake in Leishmania infantum LEM 3049 isolate promastigotes at 20 uM after 10 mins at 4 degC by fluorimetric assay; assay type: ADME

Drug uptake [1]: Active
Drug uptake [4]: Active
EC50 [6]: 1.25 µM
Drug uptake [7]: Active
Structure (SMILES): O=C(CCCCCCCCCCCCCCC[P+](c1cccc2ccccc12)(c1cccc2ccccc12)c1cccc2ccccc12)c1ccc(O)cc1O.[Br-]
selectivity ratio [2]: 10.3
EC50 [3]: 3.54 µM
EC50 [5]: 12.8 µM

From ChEMBL document CHEMBL4334518, “Discovery and Pharmacological Studies of 4-Hydroxyphenyl-Derived Phosphonium Salts Active in a Mouse Model of Visceral Leishmaniasis” (J Med Chem, 2019)
